Data published in patent US11851387B2, “Para-phenylenediamine derivative, 1,4-cyclohexyldiamine derivative, and fabricating method for 1,4-diamine cyclic compound derivative” (Yuanhan Materials Inc., priority 2021, dated 2023).

Experiment: Solubility in solvent commonly used in the synthesis of polyimide (NMP, DMAc)
Type: physicochemical
Excerpt: In the following descriptions, features and effects of the present disclosure will be described more specifically with reference to some Embodiments and some Comparative Examples. It is noted that without exceeding the scope of the present disclosure, the materials used, their amount and ratio, processing details, processing flow, etc. can be appropriately alternated. Therefore, the present disclosure should not be interpreted restrictively by the Embodiments provided below. Specifically, each Comparative Example and each Embodiment are thoroughly mixed with solvent commonly used in the synthesis of polyimide (e.g., N-methylpyrrolidone (NMP) and dimethylacetamide (DMAc)), and the solubility of each Comparative Example and each Embodiment in the solvent is measured, so as to verify the efficacy of the present disclosure. The detailed description and the measurement results of the solubility of each Comparative Example and each Embodiment are shown in Table 1.

Row | SMILES | Solubility (g/100 g solvent) (solvent NMP, dissolution temperature 50° C.) | Solubility (g/100 g solvent) (solvent DMAc, dissolution temperature 70° C.)
1 | Nc1ccc(N)cc1 [Comparative Example 1, para-phenylenediamine] | 4.1 | –
2 | NC1CCC(N)CC1 (centres unmarked) [Comparative Example 2, 1,4-cyclohexanediamine] | – | 5.7
